This is an account of results in patent US6809091B1, “Substances capable of inducing apoptosis” (Takara Bio Inc., priority 1998, dated 2004).

The structures appear in SMILES notation.

The subject of assay [1] is human FGF-β. Nature of the assay: cytokine production in DSEK cells, ELISA. Conditions: DSEK cell incubation, supernatant every 24 hours. In kind it is cell-based. As for the experimental part:
Now, in the DSEK cell incubation, 150 μl/well of the supernatant liquid of the medium were recovered every 24 hours and influence of 4-hydroxy-2-cyclopenten-1-one or 4,5-dihydroxy-2-pentenal on the production of cytokines (human TGF-β, human FGF-β, human IL-1α and human IL-10) was measured using an ELISA-kit specific to each of the cytokine (the kit manufactured by INTERGEN or human FGF-β and human IL-10; and the kit manufactured by Promega for human IL-1α and human TGF-β).
(An ELISA detects its analyte on a solid surface through an enzyme-linked reagent.)

For assay [2], the system named is heat shock protein of 70 kDa in HL-60. Nature of the assay: induction of heat shock protein of 70 kDa, SDS-PAGE and blotting. The format is cell-based, human. Details: key: “−” means no induction; “±” means a little induction; “+” shows the intensity of induction and the more the “+”, the more the induction; ++: “+” shows the intensity of induction and the more the “+”, the more the induction; +++: “+” shows the intensity of induction and the more the “+”, the more the induction. Conditions: six hours. As for the experimental part:
Each 5 ml of an RPMI 1640 medium containing 10% of FBS containing 2×10^5 cells/ml of HL-60 (ATCC CCL-240) were placed in each well of a six-well plate, incubated at 37° C. for 24 hours in the presence of 5% CO2, then 4,5-dihydroxy-2-pentenal was added to make the final concentration 0, 12.5, 25, 50 or 100 μM or 4-hydroxy-2-cyclopenten-1-one was added to make the final concentration 0, 2.5, 5, 10, 20, 40 or 80 μM and the mixture was incubated for six hours more.
After completion of the incubation, cell numbers were counted and then the cells were recovered by centrifugation and washed with PBS to prepare the cells treated with each of the samples. In addition, cells which were heated at 45° C. for five minutes followed by subjecting to the same incubation were prepared as well.
The cells treated as such were then subjected to an SDS-PAGE according to a method mentioned in “Molecular Cloning” (Cold Spring Harbor Laboratory Press, 1989). Thus, the cells were suspended in an SDS-PAGE sample buffer to make the concentration 2.5×10^6 cells/ml, the resulting cell suspension was treated at 100° C. for ten minutes, each 5 μl thereof were applied to two sheets of SDS-PAGE gel (a 5% stacking gel and a 10% separation gel) and an electrophoresis was carried out. One of the gels was stained with Coomassie while another was subjected to a blotting to polyvinylidene difluoride transfer membrane (Immobilon™ manufactured by MILLIPORE; catalog no. IPVH000-10). This membrane was subjected to a blocking overnight at 4° C. using Block Ace (manufactured by Dainippon Pharmaceutical; catalog no. UK-B25).
The membrane which was subjected to a blocking as such was made to react with monoclonal antibody HSP 72/73 (Ab-1) (manufactured by Oncogene Research Products; catalog no. HSP01) which specifically reacted with heat-induced heat shock protein of 70 kDa, washed with TBS containing 0.05% Tween 20 and further washed with TBS. After that, it was made to react with peroxidase-compounded secondary antibody HRP-Rabbit Anti Mouse IgG (H+L) (manufactured by ZYMED Laboratories; catalog no. 61-6520) and washed as same as in the previous operation. The membrane which was made to react with the primary antibody and the secondary antibody as such was made to react with RENAISSANCE™ (a chemiluminol reagent manufactured by Dupont NEN, catalog no. NEL-100) and then exposed to X-ray film to confirm the induction of the heat shock protein of 70 kDa.

Assay [3] relates to U937 cells. Nature of the assay: cell growth of U937 cells, Premix WST-1. In kind it is cell-based, human. The procedure: (1) U937 cells (ATCC CRL-1593) which were […] established from pleural effusion of patients suffering from […] were suspended in an RPMI 1640 medium containing 10% of FBS to make its concentration 5×10^5 cells/ml and each 100 μl of the suspension was placed in each well of a 96-well microtiter plate. […] The mixture was incubated at 37° C. in the presence of carbon dioxide gas and, after 24, 48 and 72 hours, 10 μl of Premix WST-1 (MK 400; manufactured by Takara Shuzo) were added. The mixture was made to react at 37° C. for three hours and the value (A450-650) obtained by subtracting the absorbance at 650 nm (A650) from that at 450 nm (A450) was defined as a degree of cell growth.
A general note: Tetrazolium dyes change colour on reduction, which living cells bring about.

The test system of assay [4] is HL-60 cells. Nature of the assay: analysis of fragmentation of DNA. The format is cell-based, human. The procedure:
(2) HL-60 cells which were incubated on an RPMI 1640 medium containing 10% of fetal bovine serum processed at 56° C. for 30 minutes were suspended in an RPMI 1640 medium to make 2.5×10^5 cells/5 ml.
To 5 ml the suspension were added 10 μl of 12.5 mM, 25 mM, 50 mM or 100 mM of a 70% ethanolic solution of 4,5-dihydroxy-2-pentenal, 0.05 mM, 0.5 mM, 5 mM or 50 mM of a 70% ethanolic solution of 4-hydroxy-2-cyclopenten-1-one, 5 mM, 10 mM or 20 mM of a 70% ethanolic solution of 4-(9-adeninyl)-2-cyclopenten-1-one prepared in Example 4-(4), 2.5 mM, 5 mM, 15 mM or 25 mM of a 70% ethanolic solution of 4-(9-guaninyl)-2-cyclopenten-1-one prepared in Example 4-(5) 75 mM, 150 mM or 300 mM of a 70% ethanolic solution of 1,5-epoxy-1-hydroxy-3-penten-2-one prepared in Example 5-(2) or 5 mM, 25 mM or 50 mM of a 70% ethanolic solution of 2-(trans-3,4-dihydroxy-1-butenyl)-4-(trans-2-formylvinyl)-1,3-dioxolane prepared in Example 6-(2) followed by incubating at 37° C. in the presence of 5% of carbon dioxide gas for 24 hours and 48 hours and the resulting cells were subjected to a measurement of apoptosis cells using FACScan by a method mentioned in pages 129-130 of “Experimental Protocol Series—Apoptosis Experiment Protocol” which was an extra issue of “Saibo Kogaku (Cell Technology)” (published by Shujunsha in 1994) and also to a measurement of analysis of fragmentation of DNA by a method mentioned in page 61-63 of “Biomanual UP Series—New Experimental Methods for Apoptosis” (published by Yodosha in 1995).

Assay [5] deals with RAW 264.7 cells. Nature of the assay: cell growth in the NO production test. The note with it: final concentration of 10 μM. The format is cell-based.

For the compound `Nc1nc2c(ncn2C2C=CC(=O)C2)c(=O)[nH]1` (centres unmarked) [4-(9-guaninyl)-2-cyclopenten-1-one], the “production of human FGF-β” value in assay [1] is “inhibited”.
With `O=CC=CC(O)CO` (single isomer, unassigned) [4,5-dihydroxy-2-pentenal, trans-4,5-dihydroxy-2-pentenal], the “intensity of induction of heat shock protein of 70 kDa” value was “±” in assay [2] (HL-60, 25 μM); “+++” in assay [2] (HL-60, 50 μM); “−” in assay [2] (HL-60, 100 μM). Further, the “Degree of Cell Growth” value in assay [3] (50 μM, 24 hours) is 0.821 A450-650; in assay [3] (50 μM, 48 hours), 1.471 A450-650; in assay [3] (50 μM, 72 hours), 1.245 A450-650; in assay [3] (75 μM, 24 hours), 0.606 A450-650; in assay [3] (75 μM, 48 hours) it was 0.879 A450-650; in assay [3] (75 μM, 72 hours) it was 0.862 A450-650. The “Degree of Cell Growth” value is 0.560 A450-650 in assay [3] (100 μM, 24 hours); 0.948 A450-650 in assay [3] (100 μM, 48 hours); 0.597 A450-650 in assay [3] (100 μM, 72 hours); 0.505 A450-650 in assay [3] (150 μM, 24 hours); 0.823 A450-650 in assay [3] (150 μM, 48 hours); 0.465 A450-650 in assay [3] (150 μM, 72 hours). Further, the “Degree of Cell Growth” value in assay [3] (200 μM, 24 hours) came to 0.370 A450-650; in assay [3] (200 μM, 48 hours), 0.644 A450-650; in assay [3] (200 μM, 72 hours) it was 0.753 A450-650. Also, the “fragmentation of DNA” value in assay [4] (HL-60, 50 μM final concentration) is given as “confirmed”; in assay [4] (HL-60, 100 μM final concentration), “confirmed”; in assay [4] (HL-60, 200 μM final concentration), “confirmed”.
Take `O=C/C=C/C1COC(/C=C/C(O)CO)O1` (stereo not drawn) [2-(trans-3,4-dihydroxy-1-butenyl)-4-(trans-2-formylvinyl)-1,3-dioxolane]: the “inhibition of cell growth” value in assay [5] is “no inhibition of cell growth was noted at all”.
As to `O=C1C=CC(O)C1` (centres unmarked) [4-hydroxy-2-cyclopenten-1-one], the “intensity of induction of heat shock protein of 70 kDa” value in assay [2] (HL-60, 5 μM) was “±”; in assay [2] (HL-60, 20 μM) it was “+++”; in assay [2] (HL-60, 40 μM) it was “++”; in assay [2] (HL-60, 80 μM), “±”. Also, the “Degree of Cell Growth” value in assay [3] (50 μM, 24 hours) is 0.501 A450-650; in assay [3] (50 μM, 48 hours) it was 0.930 A450-650; in assay [3] (50 μM, 72 hours) it was 0.875 A450-650; in assay [3] (75 μM, 24 hours) it was 0.557 A450-650; in assay [3] (75 μM, 48 hours) it was 0.968 A450-650; in assay [3] (75 μM, 72 hours) it was 0.821 A450-650. The “Degree of Cell Growth” value in assay [3] (100 μM, 24 hours) is 0.591 A450-650; in assay [3] (100 μM, 48 hours), 1.054 A450-650; in assay [3] (100 μM, 72 hours) it was 0.532 A450-650; in assay [3] (150 μM, 24 hours), 0.524 A450-650; in assay [3] (150 μM, 48 hours) it was 1.126 A450-650; in assay [3] (150 μM, 72 hours), 0.478 A450-650. The “Degree of Cell Growth” value was 0.353 A450-650 in assay [3] (200 μM, 24 hours); 0.643 A450-650 in assay [3] (200 μM, 48 hours); 0.338 A450-650 in assay [3] (200 μM, 72 hours). Further, the “fragmentation of DNA” value in assay [4] (HL-60, 10 μM final concentration) is “confirmed”. Besides, the “production of human FGF-β” value in assay [1] is reported as “inhibited”.
